Measured values taken from PubChem BioAssay (NCI).
Several values for one entry are separate records, joined by “and”; a condition that tells them apart may be missing. Identical values can stand only once.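 Five concentrations, 48 hours, 96-well plates. GI50: concentration for 50% inhibition of growth. TGI denotes the concentration required for complete inhibition of growth.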

Columns and labels:
Test in all cases: growth of human tumour cells (NCI), 48 h
NCI-H226 lung = tested on: NCI-H226 lung
SF-539 CNS = tested on: SF-539 CNS
SN12C renal = tested on: SN12C renal
OVCAR-5 ovarian = tested on: OVCAR-5 ovarian
OVCAR-4 ovarian = tested on: OVCAR-4 ovarian
KM12 colon = tested on: KM12 colon
HOP-62 NSCLC = tested on: HOP-62 NSCLC
BT-549 breast = tested on: BT-549 breast
HCT-116 colon = tested on: HCT-116 colon
CAKI-1 renal = tested on: CAKI-1 renal

Structure (SMILES)	GI50 (NCI-H226 lung)	TGI (NCI-H226 lung)	GI50 (SF-539 CNS)	TGI (SF-539 CNS)	GI50 (SN12C renal)	TGI (SN12C renal)	GI50 (OVCAR-5 ovarian)	TGI (OVCAR-5 ovarian)	GI50 (OVCAR-4 ovarian)	TGI (OVCAR-4 ovarian)	GI50 (KM12 colon)	TGI (KM12 colon)	GI50 (HOP-62 NSCLC)	TGI (HOP-62 NSCLC)	GI50 (BT-549 breast)	TGI (BT-549 breast)	GI50 (HCT-116 colon)	TGI (HCT-116 colon)	GI50 (CAKI-1 renal)	TGI (CAKI-1 renal)
COc1ccc(Cl)cc1NC(=O)C(Br)C(Br)C(=O)O (stereo not drawn)	13.7 µM	35.9 µM	11.5 µM	25.4 µM	4.02 µM	18.4 µM	27.9 µM	57 µM	6.36 µM	60.6 µM	16.3 µM	39.2 µM	4.79 µM	21.3 µM	3.23 µM	13 µM	3.09 µM	9.49 µM	16.7 µM	49.1 µM
Cc1ccc2c(O)c(O)cc(NC(C)CCCN)c2n1 (stereo not drawn)	44.9 µM	> 100 µM	3.83 µM	17.2 µM	3.89 µM	24.8 µM	7.36 µM	25.2 µM	2.88 µM	9.88 µM	25 µM	98.9 µM	28.1 µM	> 100 µM	32.1 µM	> 68.6 µM	3.06 µM	> 40 µM	21.8 µM	> 54.7 µM
CC(=O)OC1CC2(O)C3CCC4CC(O)CCC4(C)C3CCC2(C)C1C1=CC(=O)OC1 (stereo not drawn)		0.784 µM		0.113 µM		0.16 µM		0.451 µM		0.19 µM		1.87 µM		0.178 µM		0.0895 µM		0.186 µM		0.13 µM
COc1cc(/C=C2\CN(C)C/C(=C\c3cc(CN4CCCCC4)c(O)c(OC)c3)C2=O)cc(CN2CCCCC2)c1O	10.5 µM	25.9 µM	2.75 µM	8.17 µM	3.24 µM	12.8 µM	2.29 µM	5.81 µM	4.77 µM	54.1 µM	2.17 µM	4.97 µM	4.28 µM	18.4 µM	4.61 µM	16.3 µM	2.5 µM	8 µM	4.62 µM	17.5 µM
O=C(O)c1ccc(N/C=C2\C(=O)c3ccccc3OC2O)cc1O (stereo not drawn)	46.5 µg/mL	> 150 µg/mL	16.5 µg/mL	39.1 µg/mL	20.2 µg/mL	58.8 µg/mL	31.2 µg/mL	78.5 µg/mL	20.6 µg/mL	> 150 µg/mL	23.4 µg/mL	48.5 µg/mL	24.8 µg/mL	63.7 µg/mL	19 µg/mL	71.2 µg/mL	17.9 µg/mL	42.7 µg/mL	10.8 µg/mL	32.5 µg/mL
COc1cc2c[n+](C)c3c4ccccc4ccc3c2cc1OC (tested in a mixture with another compound)		33 µM	1.54 µM	5.65 µM and 25 µM	1.07 µM	5.58 µM and 17.7 µM	4.67 µM	52.7 µM	4.04 µM	43.2 µM	0.544 µM	2.5 µM and 13.2 µM	6.41 µM	49.7 µM	11 µM	24.6 µM	2.55 µM	27.2 µM		> 83 µM
Cc1cc(C)c(O)c(CN(C)Cc2cc(Cl)cc(Cl)c2O)c1	6.56 µM	23.1 µM	6.43 µM	25.1 µM	4.81 µM	20.4 µM	6.12 µM	20.5 µM	2.62 µM	10.6 µM	5.31 µM	17.7 µM	5.46 µM	18.3 µM	11.8 µM	27.3 µM	3.23 µM	10.8 µM	2.77 µM	12.2 µM
